# Experimental data from US8455475B2 (Gruenenthal GmbH, priority 2009, dated 2013).
# Columns and labels:
# [1] = molecular target: T1, human B1R (bradykinin receptor 1) (Homo sapiens, UniProt P46663); assay: FLIPR Ca2+ assay (Fluo-4) on CHO K1 cells stably transfected with the human B1R gene (hB1R cells): % inhibition at 10 μM / IC50, agonist Lys-Des-Arg9-bradykinin; type: cell-based; conditions: CHO-K1, human B1R
# T1 construct: expressed in transfected cells; host or cells: CHO K1 cells
# T1 sequence (P46663 1-353): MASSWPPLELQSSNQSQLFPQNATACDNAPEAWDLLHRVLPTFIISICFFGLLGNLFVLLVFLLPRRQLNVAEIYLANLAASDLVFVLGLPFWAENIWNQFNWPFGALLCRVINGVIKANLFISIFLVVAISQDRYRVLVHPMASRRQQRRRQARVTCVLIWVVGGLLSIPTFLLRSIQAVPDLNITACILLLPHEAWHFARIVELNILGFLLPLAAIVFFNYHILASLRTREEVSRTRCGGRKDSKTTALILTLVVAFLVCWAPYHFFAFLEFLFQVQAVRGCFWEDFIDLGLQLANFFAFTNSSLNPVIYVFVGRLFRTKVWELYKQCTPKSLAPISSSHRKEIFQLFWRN
# Description: The agonistic or antagonistic action of substances can be quantified on the bradykinin receptor 1 (B1R) of the human and rat species with ectopically expressing cell lines (CHO K1 cells) and with the aid of a Ca^2+-sensitive dyestuff (Fluo-4) in a fluorescent imaging plate reader (FLIPR). The figure in % activation is based on the Ca^2+ signal after addition of Lys-Des-Arg^9-bradykinin (0.5 nM) or Des-Arg^9-bradykinin (100 nM). Antagonists lead to a suppression of the Ca^2+ inflow after addition of the agonist. % inhibition compared with the maximum achievable inhibition is stated.
# The agonistic or antagonistic action of substances can be determined on the bradykinin receptor 1 (B1R) of the human and rat species with the following assay. In accordance with this assay, the Ca^2+ inflow through the channel is quantified with the aid of a Ca^2+-sensitive dyestuff (type Fluo-4, Molecular Probes Europe BV, Leiden, Holland) in a fluorescent imaging plate reader (FLIPR, Molecular Devices, Sunnyvale, USA).
# Chinese hamster ovary cells (CHO K1 cells) transfected stably with the human B1R gene (hB1R cells) or the B1R gene of the rat (rB1R cells) are used. For functional studies, these cells are plated out on black 96-well plates with a clear base (BD Biosciences, Heidelberg, Germany or Greiner, Frickenhausen, Germany) in a density of 20,000-35,000 cells/well. The cells are left overnight at 37° C. and 5% CO2 in culture medium (hB1R cells: Nutrient Mixture Ham's F12, Gibco Invitrogen GmbH, Karlsruhe, Germany or DMEM, Sigma-Aldrich, Taufkirchen, Germany; rB1R cells: D-MEM/F12, Gibco Invitrogen GmbH, Karlsruhe, Germany) with 10 vol. % FBS (foetal bovine serum, Gibco Invitrogen GmbH, Karlsruhe, Germany or PAN Biotech GmbH, Aidenbach, Germany). On the following day, the cells are loaded for 60 min at 37° C. with 2.13 μM Fluo-4 (Molecular Probes Europe BV, Leiden Holland) in HBSS buffer (Hank's buffered saline solution, Gibco Invitrogen GmbH, Karlsruhe, Germany) with 2.5 mM probenecid (Sigma-Aldrich, Taufkirchen, Germany) and 10 mM HEPES (Sigma-Aldrich, Taufkirchen, Germany). The plates are then washed 2× with HBSS buffer, and HBSS buffer which additionally contains 0.1% BSA (bovine serum albumin; Sigma-Aldrich, Taufkirchen, Germany), 5.6 mM glucose and 0.05% gelatine (Merck KGaA, Darmstadt, Germany) is added. After a further incubation of 20 minutes at room temperature, the plates are inserted into the FLIPR for the Ca^2+ measurement. Alternatively, the plates are washed with buffer A (15 mM HEPES, 80 mM NaCl, 5 mM KCl, 1.2 mM CaCl2, 0.7 mM MgSO4, 2 g/l glucose, 2.5 mM probenecid), buffer A is added and the plates are loaded with 2.5 μM Fluo-4 and 0.025% Pluronic F127 (Sigma-Aldrich, Taufkirchen, Germany). Thereafter, the cells are washed 2× with buffer A and incubated for 30 minutes at room temperature with buffer A, which additionally contains 0.05% BSA and 0.05% gelatine, and thereafter inserted into the FLIPR for the Ca^2+ measurement. The Ca^2+-dependent fluorescence is measured here before and after addition of substances (λex=488 nm, λem=540 nm). Quantification is by measurement of the highest fluorescence intensity (FC, fluorescence counts) over time.
# The FLIPR protocol consists of 2 additions of substance. Test substances (10 μM) are first pipetted on to the cells and the Ca^2+ inflow is compared with the control (hB1R: Lys-Des-Arg^9-bradykinin>=50 nM; rB1R: Des-Arg^9-bradykinin 10 μM). This gives the result in % activation based on the Ca^2+ signal after addition of Lys-Des-Arg^9-bradykinin (>=50 nM) or Des-Arg^9-bradykinin (10 μM). After incubation for 10-20 minutes, Lys-Des-Arg^9-bradykinin (hB1R) or Des-Arg^9-bradykinin (rB1R) in the concentration of the EC80 is applied and the inflow of Ca^2+ is likewise determined. Antagonists lead to a suppression of the Ca^2+ inflow. % inhibition compared with the maximum achievable inhibition is calculated.
# For determination of the IC50 value, the substances are added in various concentrations. […]
# [2] = molecular target: T2, rat B1R (bradykinin receptor 1) (Rattus norvegicus, UniProt P97583); assay: FLIPR Ca2+ assay (Fluo-4) on CHO K1 cells stably transfected with the B1R gene of the rat (rB1R cells): % inhibition at 10 μM / IC50, agonist Des-Arg9-bradykinin; type: cell-based; conditions: CHO-K1, rat B1R
# T2 construct: expressed in transfected cells; host or cells: CHO K1 cells
# T2 sequence (P97583 1-337): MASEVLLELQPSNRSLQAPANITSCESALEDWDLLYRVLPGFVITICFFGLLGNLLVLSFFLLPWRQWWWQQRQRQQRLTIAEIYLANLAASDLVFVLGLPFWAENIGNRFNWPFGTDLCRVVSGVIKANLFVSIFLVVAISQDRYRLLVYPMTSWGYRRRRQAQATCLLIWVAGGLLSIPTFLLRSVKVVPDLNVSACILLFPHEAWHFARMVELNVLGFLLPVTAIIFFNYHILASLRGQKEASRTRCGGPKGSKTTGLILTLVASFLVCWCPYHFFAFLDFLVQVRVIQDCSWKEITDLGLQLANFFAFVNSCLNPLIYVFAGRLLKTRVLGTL
# How it was run: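 Loading with Fluo-4 occurs for 60 min at 37 °C, or alternatively in buffer A, before FLIPR measurement. Compounds are applied, incubated 10–20 min, and then the EC80 agonist is added. Antagonism appears as reduced peak Ca2+ signal relative to maximal inhibition.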
inhibition at 10 µM [1] [%],inhibition at 10 µM [2] [%],Structure (SMILES)
34,69,"O=C(NC1CCc2ccc(C(=O)N3CCC4(CCC(N5CC(F)(F)C5)CC4)CC3)cc21)c1ccccc1Cl (stereo not drawn) [Example H-07, 2-chloro-N-[6-[9-(3,3-difluoro-azetidin-1-yl)-3-azaspiro[5.5]undecane-3-carbonyl]-2,3-dihydro-1H-inden-1-yl]-benzamide]"
94,107,"CN(C(=O)c1cc(Cl)ccc1C(F)(F)F)C1CCc2ccc(C(=O)N3CCC4(CC3)CCN(c3ccncc3)CC4)cc21 (stereo not drawn) [IND_CC-301, 5-Chloro-N-methyl-N-[6-(9-pyridin-4-yl-3,9-diazaspiro[5.5]undecane-3-carbonyl)-2,3-dihydro-1H-inden-1-yl]-2-(trifluoromethyl)-benzamide]"
99,103,"O=C(N[C@@H]1CCCc2ccc(C(=O)N3CCC4(CCN(c5ccncc5)CC4)C3)cc21)c1ccccc1Cl [Example H-11, 2-chloro-N-[(1R)-7-(8-pyridin-4-yl-3,8-diazaspiro[4.5]decane-3-carbonyl]-1,2,3,4-tetrahydro-naphthalen-1-yl]-benzamide]"
41,94,"CC1(C)CC(NC(=O)C(c2ccccc2)c2ccccc2Cl)c2cc(C(=O)N3CCC4(CC3)CCN(c3ccncc3)CC4)ccc21 (stereo not drawn) [Ind_CC-056, 2-(2-chlorophenyl)-N-[3,3-dimethyl-6-(9-pyridin-4-yl-3,9-diazaspiro[5.5]-undecane-3-carbonyl)-1,2-dihydro-inden-1-yl]-2-phenyl-acetamide]"
99,102,"CN(C(=O)c1ccc(Cl)s1)C1CCc2ccc(C(=O)N3CCC4(CC3)CCN(c3ccncc3)CC4)cc21 (stereo not drawn) [Ind_CC-017, 5-chloro-N-methyl-N-[6-(9-pyridin-4-yl-3,9-diazaspiro[5.5]undecane-3-carbonyl)-2,3-dihydro-1H-inden-1-yl]-thiophene-2-carboxylic acid amide]"
97,105,"CC1(C)Cc2ccc(C(=O)N3CCC4(CC3)CCN(c3ccncc3)CC4)cc2C1NC(=O)c1cc(F)ccc1Cl (stereo not drawn) [IND_CC-223, 2-Chloro-N-[2,2-dimethyl-6-(9-pyridin-4-yl-3,9-diazaspiro[5.5]undecane-3-carbonyl)-1,3-dihydro-inden-1-yl]-5-fluoro-benzamide]"
90,102,"Cc1ccc(F)c(C(=O)NC2CC(C)(C)c3ccc(C(=O)N4CCC5(CC4)CCN(c4ccncc4)CC5)cc32)c1Cl (stereo not drawn) [IND_CC-248, 2-Chloro-N-[3,3-dimethyl-6-(3-pyridin-4-yl-3,9-diazaspiro[5.5]undecane-9-carbonyl)-1,2-dihydro-inden-1-yl]-6-fluoro-3-methyl-benzamide]"
91,101,"O=C(c1ccc2c(c1)[C@H](N1Cc3cccc(Cl)c3C1=O)CCC2)N1CCC2(CC1)CCN(c1ccncc1)CC2 [Example H-14, 7-chloro-2-[(1R)-7-(9-pyridin-4-yl-3,9-diazaspiro[5.5]undecane-3-carbonyl)-1,2,3,4-tetrahydro-naphthalen-1-yl]-2,3-dihydro-isoindol-1-one]"
99,102,"COc1cc(C)c(S(=O)(=O)N[C@H]2CCCc3ccc(C(=O)N4CCC5(CC4)CCN(c4ccncc4)CC5)cc32)c(C)c1 [Example H-19, 4-methoxy-2,6-dimethyl-N-[(1S)-7-(9-pyridin-4-yl-3,9-diazaspiro[5.5]undecane-3-carbonyl)-1,2,3,4-tetrahydro-naphthalen-1-yl]-benzenesulfonic acid amide]"
95,99,"Cc1cccc(Cl)c1S(=O)(=O)NC1c2cc(C(=O)N3CCC4(CC3)CCN(c3ccncc3)CC4)ccc2CC1(C)C (stereo not drawn) [IND_CC-240, 2-Chloro-N-[2,2-dimethyl-6-(9-pyridin-4-yl-3,9-diazaspiro[5.5]undecane-3-carbonyl)-1,3-dihydro-inden-1-yl]-6-methyl-benzenesulfonic acid amide]"
8,102,"O=C(NC1CCc2ccc(C(=O)N3CCC4(CC3)CCN(c3ccc(C(F)(F)F)cc3)CC4)cc21)c1ccc(F)cc1Cl (stereo not drawn) [IND_CC-274, 2-Chloro-4-fluoro-N-[6-[9-[4-(trifluoromethyl)-phenyl]-3,9-diazaspiro[5.5]undecane-3-carbonyl]-2,3-dihydro-1H-inden-1-yl]-benzamide]"
33,90,"O=C(NC1CCc2ccc(C(=O)N3CCC4(CC3)CCN(c3ccc(F)cc3)CC4)cc21)c1ccccc1Cl (stereo not drawn) [Ind_CC-097, 2-chloro-N-[6-[9-(4-fluorophenyl)-3,9-diazaspiro[5.5]undecane-3-carbonyl]-2,3-dihydro-1H-inden-1-yl]-benzamide]"
100,101,"O=C(N[C@@H]1CCc2ccc(C(=O)N3CCC4(CCN(c5ccncc5)CC4)C3)cc21)c1cnccc1C(F)(F)F [Example H-115, N-[(1R)-6-(8-Pyridin-4-yl-3,8-diazaspiro[4.5]decane-3-carbonyl)-2,3-dihydro-1H-inden-1-yl]-4-(trifluoromethyl)-pyridine-3-carboxylic acid amide]"
100,101,"O=C(NC1CCc2ccc(C(=O)N3CCC4(CCN(c5ccncc5)CC4)C3)cc21)c1cc(Cl)ccc1Cl (stereo not drawn) [IND_CC-245, 2,5-Dichloro-N-[6-(8-pyridin-4-yl-2,8-diazaspiro[4.5]decane-2-carbonyl)-2,3-dihydro-1H-inden-1-yl]-benzamide]"

Structure (SMILES),inhibition at 10 µM [1] [%],inhibition at 10 µM [2] [%]
"CN(C(=O)c1ccccc1Cl)C1CCc2ccc(C(=O)N3CCC4(CC3)CCC(c3ccc(F)cc3)(N(C)C)CC4)cc21 (stereo not drawn) [Ind_CC-110, 2-chloro-N-[6-[9-dimethylamino-9-(4-fluorophenyl)-3-azaspiro[5.5]undecane-3-carbonyl]-2,3-dihydro-1H-inden-1-yl]-N-methyl-benzamide]",52,79
